We go through one compound from patent publication US12622918B2, “Formulations and dosages for administering a compound that inhibits MCL1 protein” (Amgen Inc., priority 2019, dated 2026).

This data set concerns OPM2-Luc orthotopic tumors. Briefly: OPM2-Luc multiple myeloma orthotopic model, AMG 176 plus carfilzomib. It is filed as in vivo. The following applies: carfilzomib 3 mg/kg IV twice weekly. As to the method:
On day 0, female NSG mice were injected IV with 1×10^6 OPM2-Luc human OPM2-Luc multiple myeloma tumor cells transfected with the firefly luciferase gene.

`CC(C)C[C@H](NC(=O)[C@H](CCc1ccccc1)NC(=O)CN1CCOCC1)C(=O)N[C@@H](Cc1ccccc1)C(=O)N[C@@H](CC(C)C)C(=O)[C@@]1(C)CO1` [carfilzomib]: the “TGI (tumor burden)” value (AMG 176 20 mg/kg orally once daily, day 4 until day 20, female NSG mice) is 82%. Also, the tolerability result (NSG mice) was “Unscheduled deaths”.
